Literature values, collected in patent publication US8278324B2, “Oxadiazole derivatives active on sphingosine-1-phosphate (S1P)” (Glaxo Group Limited, priority 2007, dated 2012).

Key:
circulating lymphocytes = conditions: animals and man
[1] = clinical studies, first 24 hours of treatment

For CCCCCCCCc1ccc(CCC(N)(CO)CO)cc1 [FTY720], the “effect on circulating lymphocytes” value (circulating lymphocytes) is given as “reduce circulating lymphocytes” and the bradycardia [1] is given as “results in bradycardia”.
